Results taken from PubChem BioAssay (NCI).
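Cultured in 96-well plates, cells were exposed to test compound for 48 hours across five concentrations. TGI marks complete inhibition of growth.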

Legend:
Assay in all cases: inhibition of tumour cell growth, NCI panel, 48 h
SK-MEL-5 melanoma = test system: SK-MEL-5 melanoma
HT29 colon = test system: HT29 colon
OVCAR-8 ovarian = test system: OVCAR-8 ovarian
NCI-H23 lung = test system: NCI-H23 lung
EKVX NSCLC = test system: EKVX NSCLC
OVCAR-5 ovarian = test system: OVCAR-5 ovarian
MALME-3M melanoma = test system: MALME-3M melanoma
HL-60(TB) leukemia = test system: HL-60(TB) leukemia
SK-MEL-2 melanoma = test system: SK-MEL-2 melanoma
NCI/ADR-RES ovarian = test system: NCI/ADR-RES ovarian
IGROV1 ovarian = test system: IGROV1 ovarian
KM12 colon = test system: KM12 colon
SF-268 CNS = test system: SF-268 CNS
HOP-62 NSCLC = test system: HOP-62 NSCLC
SNB-75 CNS = test system: SNB-75 CNS
A549 NSCLC = test system: A549 NSCLC
COLO 205 colon = test system: COLO 205 colon
T-47D breast = test system: T-47D breast
UACC-62 melanoma = test system: UACC-62 melanoma
SR leukemia = test system: SR leukemia

| SMILES | TGI (SK-MEL-5 melanoma) | TGI (HT29 colon) | TGI (OVCAR-8 ovarian) | TGI (NCI-H23 lung) | TGI (EKVX NSCLC) | TGI (OVCAR-5 ovarian) | TGI (MALME-3M melanoma) | TGI (HL-60(TB) leukemia) | TGI (SK-MEL-2 melanoma) | TGI (NCI/ADR-RES ovarian) | TGI (IGROV1 ovarian) | TGI (KM12 colon) | TGI (SF-268 CNS) | TGI (HOP-62 NSCLC) | TGI (SNB-75 CNS) | TGI (A549 NSCLC) | TGI (COLO 205 colon) | TGI (T-47D breast) | TGI (UACC-62 melanoma) | TGI (SR leukemia) |
| --- | --- | --- | --- | --- | --- | --- | --- | --- | --- | --- | --- | --- | --- | --- | --- | --- | --- | --- | --- | --- |
| CCCCCCCCCC(=O)CC(=O)c1c(O)cc(O)cc1O | 28.6 µM | 38.8 µM | 36.9 µM | 35.9 µM | > 75 µM | 48.2 µM | 32.1 µM | 42.8 µM | 40.9 µM | 38.6 µM | > 75 µM | 42.8 µM | 49.5 µM | 32.5 µM | 69.6 µM | > 75 µM | > 75 µM | > 75 µM |  |  |
| COc1ccc(-n2c(=O)n(C)c(=O)n2-c2c(C)c(C)c(C)c(C)c2C)cc1 | > 100 µM | > 100 µM | > 100 µM | > 100 µM | > 100 µM | > 100 µM | > 100 µM |  | > 100 µM | > 100 µM | > 100 µM | > 100 µM | > 100 µM | > 100 µM | > 100 µM | > 100 µM | > 100 µM | > 100 µM | > 100 µM |  |
| CN(CC#N)C(=O)Cc1ccc([N+](=O)[O-])cc1 | > 10 µM | > 10 µM | > 10 µM | > 10 µM | > 10 µM | > 10 µM | > 10 µM | > 10 µM | > 10 µM | > 10 µM | > 10 µM | > 10 µM | > 10 µM | > 10 µM |  | > 10 µM | > 10 µM | > 10 µM | > 10 µM | > 10 µM |
| CCOC(=O)c1c(N2CCOCC2)[nH]c(=O)c(C(c2ccc(Cl)c([N+](=O)[O-])c2)c2c(O)c(C(=O)OCC)c(N3CCOCC3)[nH]c2=O)c1O | 74.5 µM | 42.1 µM | 37 µM | 98.8 µM | > 100 µM | > 100 µM | > 100 µM |  |  | > 100 µM |  | > 100 µM | > 100 µM | > 100 µM | > 100 µM | > 100 µM | > 100 µM | 48.8 µM | > 100 µM | > 100 µM |
| CNC(=O)OCCN1c2ccccc2Sc2ccccc21 | > 100 µM | > 100 µM | > 100 µM | > 100 µM | > 100 µM | > 100 µM | > 100 µM | > 100 µM |  | > 100 µM | > 100 µM | > 100 µM | > 100 µM | 89.2 µM |  | > 100 µM | > 100 µM | > 100 µM | > 100 µM | > 100 µM |
| CC1(C)O[C@@H](CP(c2ccccc2)c2ccccc2)[C@H](CP(c2ccccc2)c2ccccc2)O1 | 19.4 µM | 47.7 µM | 20.5 µM | 14.6 µM | 29.4 µM | 54.7 µM | 20.9 µM |  |  | 36 µM | 16.5 µM | 54.7 µM | 25.3 µM | 44.6 µM | 27.9 µM | 85.7 µM | 12.4 µM | 29.8 µM |  |  |
| NC(=O)C(=CN1CC(=O)NC1=S)C(N)=O | > 100 µM | > 100 µM | > 100 µM | > 100 µM | > 100 µM | > 100 µM |  | > 100 µM | > 100 µM | > 100 µM | > 100 µM | > 100 µM | > 100 µM | > 100 µM | > 100 µM | > 100 µM | > 100 µM | > 100 µM | > 100 µM |  |
| O=C(N/C(=C/c1ccc(Cl)cc1)c1nc2ccccc2c(=O)n1Nc1ccc([N+](=O)[O-])cc1[N+](=O)[O-])c1ccccc1 | > 100 µM | > 100 µM | > 100 µM | > 100 µM |  | > 100 µM | > 100 µM |  |  | > 100 µM | > 100 µM | > 100 µM |  | > 100 µM | > 100 µM | > 100 µM | > 100 µM | > 100 µM | > 100 µM | > 100 µM |
| CC1CC(NN(C)C)C2(C(N)=O)C(N)=NC(=O)C12C#N (configuration not stated) | > 100 µM | > 100 µM | > 100 µM | > 100 µM | > 100 µM | > 100 µM | > 100 µM |  | > 100 µM | > 100 µM | > 100 µM | > 100 µM | > 100 µM | > 100 µM | > 100 µM | > 100 µM | > 100 µM | > 100 µM | > 100 µM | > 100 µM |
| COC(=O)CCc1ccc2c(c1)CC1(C2)Cc2ccc3c(c2C1)CCC3 (configuration not stated) | 90.9 µM | > 100 µM | > 100 µM | > 100 µM | > 100 µM |  | > 100 µM | > 100 µM |  | > 100 µM | > 100 µM | > 100 µM | > 100 µM | > 100 µM | > 100 µM | > 100 µM | > 100 µM | > 100 µM | > 100 µM | > 100 µM |
| O=C(CCO)OCCCCCC/C=C\CCCCCC/C=C\CCCCCCCCOC(=O)CCO | > 100 µM | 31.5 µM | 36.3 µM | 31.8 µM | 32.3 µM | 32.3 µM | 34.7 µM | 32.1 µM | 31 µM | 32.7 µM | 31.2 µM | 46 µM | 32.5 µM | 36.1 µM | 34 µM | 29.6 µM | > 100 µM | 35.9 µM | 32.9 µM |  |
| Cc1ccccc1NC(=O)C(=O)Cc1cnc2ccccc2n1 | > 100 µM | > 100 µM | > 100 µM | > 100 µM | > 100 µM | > 100 µM | > 100 µM | > 100 µM | > 100 µM | > 100 µM | > 100 µM | > 100 µM | > 100 µM |  |  | > 100 µM | > 100 µM | > 100 µM | > 100 µM |  |
| Cc1cc(C)c(NS(=O)c2cccc([N+](=O)[O-])c2)c(C)c1 (configuration not stated) |  | > 100 µM | > 100 µM | > 100 µM |  | > 100 µM | > 100 µM | > 100 µM |  | > 100 µM |  | > 100 µM | > 100 µM | > 100 µM |  | > 100 µM | > 100 µM | > 100 µM |  | > 100 µM |
